Source: publication PMC9000427, “Synthesis and Anti-Trypanosoma cruzi Biological Evaluation of Novel 2-Nitropyrrole Derivatives” (Molecules, 2022)
“And” between values parts separate entries of the source, which are not always exact repeats. Equal values may be shown once. Read-outs that look alike come from different tables or passages of the source.

Key:
[1] = test system: T. cruzi X10/7 intracellular amastigotes; assay: T. cruzi intracellular assay (infected Vero cells, high-content imaging); type: cell-based, Trypanosoma cruzi
Method: The infected Vero cells were then plated into 384-well plates containing the compounds to be tested, at 4000 cells per well in MEM media with 1% FCS. […] The plates were imaged on a Perkin Elmer Operetta high-content imaging system using a 20× objective. Images were analysed using the Columbus system (Perkin Elmer).

Vero host cells = assay: Cytotoxicity against Vero host cells in the T. cruzi intracellular assay; type: cell-based; settings: Chlorocebus sabaeus
Method: (§1) These new derivatives were evaluated in vitro against the intracellular T. cruzi strain X10/7-Silvio by determining their 50% efficacy concentration (EC50) and were compared to the reference anti-T. cruzi drug nifurtimox. The in vitro 50% cytotoxic concentrations (CC50) were assessed on the CHO cell line and compared to a cytotoxic reference drug, doxorubicin. In vitro cytotoxicity against vero host cells was also assessed (vero cells EC50).
Vero cells (ECCAC 84113001) were screened for mycoplasma infection and maintained in MEM medium supplemented with Glutamax (Life Technologies) and 10% (v/v) foetal calf serum (FCS) at 37 °C in the presence of 5% CO2. T. cruzi parasites (Silvio X10/7 A1), a clonal line kindly provided by Susan Wyllie and Prof. Alan Fairlamb were maintained in Vero cells. On a weekly basis, emerged trypomastigotes were used to infect a new Vero monolayer at the multiplicity of infection (MOI) 1.5 [32].
For the primary intracellular assay, the infection conditions were chosen so that no trypomastigote egress occurs during the compound incubation time. First, Vero cells were infected overnight with tissue culture-derived T. cruzi trypomastigotes in T225 tissue culture flasks (MOI 5).
Next, any remaining free trypomastigotes were washed away with serum-free MEM, and the infected Vero cells were harvested by trypsinisation. The infected Vero cells were then plated into 384-well plates containing the compounds to be tested, at 4000 cells per well in MEM media with 1% FCS. After 96h incubation at 37 °C in the presence of 5% CO2, the plates were fixed with 4% formaldehyde for 20 min at room temperature and stained with 5μg/mL Hoechst 33342. The plates were imaged on a Perkin Elmer Operetta high-content imaging system using a 20× objective. Images were analysed using the Columbus system (Perkin Elmer). The algorithm for the primary assay first identified the Vero nuclei followed by the demarcation of the cytoplasm and identification of intracellular amastigotes. This algorithm reported the mean number of parasites per Vero cell and the total number of Vero cells. The data analysis was as previously described.

in vitro = type: cell-based; settings: Chinese hamster, CC50 CHO
Method: as §1
The toxicity of compounds towards Chinese hamster ovary cells (CHO-K1, ATCC CCL61) was evaluated by the NRU toxicity test, based on the concentration-dependent reduction of the uptake of the vital dye neutral red when measured 24 h after chemical treatment. Cells were grown in McCoy’s medium supplemented with Penicillin 100 IU/mL and streptomycin 100 μg/mL, and 10% of inactivated calf serum, and incubated at 37 °C in CO2 5% atmosphere. They were seeded into two 96-well tissue culture plates (0.1 mL per well), at a concentration of 1 × 10^5 cells/mL, and incubated at 37 °C (5% CO2) for 24 h, until confluent. The culture medium was decanted and replaced by 100 µL of fresh medium containing the appropriate concentrations of the compounds (eight different concentrations in triplicate), then cells were incubated at 37 °C (5% CO2) in the dark for 24 h. At the end of the incubation period, cells were washed, placed into neutral red medium (50 μg/mL neutral red in complete medium). This vital dye is a weak cationic dye that penetrates membranes of living cells by […] and accumulates intracellularly in lysosomes. On the contrary, alterations of the cell surface or metabolism result in a decreased uptake and binding of NR in non-viable cells. Cells were incubated for 3 h at 37°C, 5% CO2, and then the culture medium was removed, and cells were washed three times with 0.2 mL of PBS to remove excessive dye. Destaining solution (50% ethanol, 1% acetic acid, 49% distilled water; 50µL per well) was added into the wells, and the plates were shaken for 15–20 min at room temperature in the dark. The degree of cell viability was measured by a fluorescence–luminescence reader. The optical density (OD) of each well was read at 540 nm. The results obtained for wells treated with the test compounds were compared to those of untreated control wells (100% viability) and converted to percentage values. The mean OD value of blank wells (containing only neutral red desorbed solution) was subtracted from the mean OD value of three treated wells (dilutions of the test material, positive control or HBSS). The percentages of cell viability were calculated as:Viability (%) = (Mean OD of test wells-mean OD of blanks) × 100 / (Mean OD of negative control − mean OD of blanks)
The concentration of the test substances causing a 50% release of neutral red as compared to the control culture was calculated by non-linear regression analysis using software Phototox Version 2.0.

[2] = Trypanosoma cruzi, Vero, 96 h, intracellular T. cruzi strain X10/7-Silvio, 96h incubation, mean ± SD of two independent biological replicates, read-out: EC50 T. cruzi
[3] = Vero host cells, 96h incubation, concentrations up to 50 µM, read-out: Vero cells EC50
[4] = Trypanosoma cruzi, Vero, Replicate 1, dose response curve, read-out: pXC50 intracellular amastigotes (converted)
[5] = Trypanosoma cruzi, Vero, Replicate 2, dose response curve, read-out: pXC50 intracellular amastigotes (converted)
[6] = Replicate 1, inhibition of Vero host cell growth, read-out: C_pXC50 host cells
[7] = intracellular T. cruzi strain X10/7-Silvio, 96h incubation, mean ± SD of two independent biological replicates, read-out: EC50 T. cruzi

Structure (SMILES)	EC50 [1, 2] [µM]	EC50 (Vero host cells; [3]) [µM]	CC50 at 24 h (in vitro) [µM]	melting point [°C]	further results
O=C(Cn1cccc1[N+](=O)[O-])NCc1ccccc1 [Compound 3, N-Benzyl-2-(2-nitro-1H-pyrrol-1-yl)acetamide]	34.5 ± 21.9	42 ± 11.3	24.3	174 to 175	–
CC(C)NC(=O)Cn1cccc1[N+](=O)[O-] [Compound 20, N-Isopropyl-2-(2-nitro-1H-pyrrol-1-yl)acetamide]	–	–	321 ± 5.3	190 to 191	–
CC1CS(=O)(=O)CCN1/N=C/c1ccc([N+](=O)[O-])o1 (centres unmarked) [Nifurtimox, reference compound]	2.1 ± 0.2	–	–	–	EC50 [1, 4]: 2.04 µM; EC50 [1, 5]: 2.04 µM; EC50 (Vero host cells; [6]): > 15.8 µM
O=C(Cn1cccc1[N+](=O)[O-])Nc1ccccc1 [Compound 4, 2-(2-Nitro-1H-pyrrol-1-yl)-N-phenylacetamide]	< 10	14	262 ± 3.9	201 to 202	EC50 [1, 7]: 6 µM
COc1cccc(NC(=O)Cn2cccc2[N+](=O)[O-])c1 [Compound 19, N-(3-Methoxyphenyl)-2-(2-nitro-1H-pyrrol-1-yl)acetamide]	50	> 50	260 ± 6.3	–	–
O=C(Cn1cccc1[N+](=O)[O-])NCc1cccc(C(F)(F)F)c1 [Compound 15, 2-(2-Nitro-1H-pyrrol-1-yl)-N-[3-(trifluoromethyl)benzyl]acetamide]	41 ± 12.7	43 ± 9.9	185 ± 5.1	161 to 162	–
COc1cccc2c1C(=O)c1c(O)c3c(c(O)c1C2=O)C[C@@](O)(C(=O)CO)C[C@@H]3O[C@H]1C[C@H](N)[C@H](O)[C@H](C)O1 [Doxorubicin, reference compound]	–	–	4.6 ± 0.08	–	–
O=C(Cn1cccc1[N+](=O)[O-])Nc1ccccc1Cl [Compound 17, N-(2-Chlorophenyl)-2-(2-nitro-1H-pyrrol-1-yl)acetamide]	50	> 50	198 ± 5.7	–	–
O=C(Cn1cccc1[N+](=O)[O-])Nc1cc(F)ccc1Br [Compound 22, N-(2-Bromo-5-fluorophenyl)-2-(2-nitro-1H-pyrrol-1-yl)acetamide]	–	–	188 ± 4.4	185 to 186	–
O=C(Cn1cccc1[N+](=O)[O-])NC1CCCC1 [Compound 21, N-Cyclopentyl-2-(2-nitro-1H-pyrrol-1-yl)acetamide]	–	–	303 ± 6.1	–	–
O=C(Cn1cccc1[N+](=O)[O-])Nc1ccc(Br)cc1 [Compound 16, N-(4-Bromophenyl)-2-(2-nitro-1H-pyrrol-1-yl)acetamide]	< 10	14.5 ± 0.7	173 ± 4.6	–	EC50 [1, 7]: 6.5 ± 0.6 µM
O=C(Cn1cccc1[N+](=O)[O-])Nc1cccc(C(F)(F)F)c1 [Compound 18, 2-(2-Nitro-1H-pyrrol-1-yl)-N-[3-(trifluoromethyl)phenyl]acetamide]	–	> 50	156 ± 2.9	–	maximum effect (percent inhibition of intracellular amastigotes) ([1]; 96h treatment, two independent replicates, normalised to DMSO (0%) and nifurtimox controls (100%)): 71%; Emax ([1]; Trypanosoma cruzi, Vero, 96 h, 96h treatment, two independent replicates, normalised to DMSO (0%) and nifurtimox controls (100%), read-out: maximum effect (percent inhibition of intracellular amastigotes)): 79%; EC50 [1, 4]: 2.29 µM; EC50 [1, 5]: 4.9 µM; EC50 [1, 7]: < 10 µM and 3.6 µM; EC50 (Vero host cells; [6]): > 50.1 µM
